Experimental data taken from patent US20100160294A1 (Cypress Biosciences, Inc., priority 2008, published 2010).

Key:
[1] = Example 1: tolerability study of mirtazapine and reboxetine in normal healthy subjects; type: in vivo, human; conditions: 6 weeks; 15 mg mirtazapine in the evening, 2 mg reboxetine in the morning, or 2 or 4 mg reboxetine + 15 mg mirtazapine
Procedure: (§1) The subjects receive 2 capsules per day, one in the morning and one at bedtime. […] All medications are administered in an over-encapsulated format that ensures blinding of study participants, staff and investigators. All subjects are scheduled to receive a total of 6 weeks of therapy, and are required to return to the clinics after 1, 2, 4 and 6 weeks of therapy. Patients are required to complete paper self-assessments, electronic diary assessments, computer based cognitive testing, as well as vital signs and weight assessments at the clinic visits.

[2] = test system: 5-HT and NA reuptake sites; conditions: ratio of Ki for serotonin reuptake to Ki for norepinephrine reuptake; from U.S. Pat. No. 6,642,235; cited from earlier work
[3] = Example 4: tolerability study of mirtazapine and betahistine in normal healthy subjects; type: in vivo, human; conditions: 6 weeks; 15 mg mirtazapine in the evening, 8 mg betahistine in the morning, or 8 or 16 mg betahistine + 15 mg mirtazapine
Procedure: as §1

[4] = cited from earlier work

Row | Compound | side effects [1] | norepinephrine reuptake inhibitor selectivity (Ki5HT/KiNA) [2] | side effects [3] | appetite increase reported, share of patients ([4]; controlled studies, placebo 2%) [%] | weight gain of greater than or equal to 7% of body weight, share of patients ([4]; same controlled trials, placebo 0%) [%]
1 | CCOc1ccccc1OC(c1ccccc1)C1CNCCO1 (racemic) [reboxetine, 2-[(2-ethoxyphenoxy)-phenyl-methyl]morpholine] | insomnia, nausea/vomiting, and weight loss | about 80 | insomnia, nausea/vomiting, and weight loss | – | –
2 | CN(C)CCC=C1c2ccccc2CCc2ccccc21 [amitriptyline] | – | – | – | 6 | 5.9
3 | CNCCc1ccccn1 [betahistine, 2-[2-(methylamino)ethyl]pyridine] | – | – | insomnia, nausea/vomiting, and weight loss | – | –
4 | CN1CCN2c3ncccc3Cc3ccccc3C2C1 (stereo not drawn) [mirtazapine, 1,2,3,4,10,14b-hexahydro-2-methylpyrazino [2,1-a]pyrido[2,3-c]benzazepine] | weight gain, sedation, and cognitive deficits | – | weight gain, sedation, and cognitive deficits | – | –
5 | (S,S)reboxetine | – | about 12,700 | – | – | –
